Data as given in patent publication US7629310B2, “RhoB as a suppressor of cancer cell growth, cell transformation, and metastasis” (University of South Florida, priority 2000, dated 2009).

Assays:
RhoB promoter [1] = experiment: RhoB promoter transcriptional activity in H-Ras/3T3 cells; assay type: cell-based; details: treated 12 hours (FIG. 6B)
Excerpt: The cell lysates were processed as in FIGS. 5A-5D. […] The cell lysates were processed as in FIGS. 5A-5D. […] The cell lysates were processed as in FIGS. 5A-5D. Gene Constructs and RhoB Promoter Transcriptional Activity Assay. Constitutively active H-Ras61L, K-RasV12, N-RasV12, and dominant negative […]-Ras were kind gifts from Dr. Channing Der (University of North Carolina) (Khosravi-Far, R. et al., Mol Cell Biol, 1995, 15:6443-53; Quilliam, L. A. et al., Mol Cell Biol, 1994, 14:1113-21). Wild-type RhoA and RhoB were subcloned into hemaglutinin (HA)-tagged pcDNA3 (INVITROGEN). The orientation and the sequences of these genes were confirmed by DNA sequencing facilities at the H. Lee Moffitt Cancer Center, Tampa, Fla. RhoB promoter construct pGEI was kindly provided by Dr Y. Monden (Banyu Tsukuba Research, Japan) (Nakamura et al., 1996). pCMV-β-galactosidase vector was purchased from INVITROGEN. The plasmid containing CA-, DN-PI3K, Mek and Akt were kindly provided by Dr. Julie Y. Djeu (H. Lee Moffitt Cancer and Research Institute, Tampa, Fla.) (Jiang, K. et al., Blood, 2003, 101:236-44). β-galactosidase activity and luciferase assay kits were purchased from PROMEGA Corporation, Madison, Wis. […] The RhoB promoter transcriptional activity was determined by dividing the luciferase/β-Gal values from oncogene-transfected cells by those from pcDNA3-transfected cells. […]

RhoB promoter [2] = experiment: RhoB promoter transcriptional activity (luciferase reporter) in NIH3T3 cells; assay type: cell-based
Excerpt: Gene Constructs and RhoB Promoter Transcriptional Activity Assay. Constitutively active H-Ras61L, K-RasV12, N-RasV12, and dominant negative […]-Ras were kind gifts from Dr. Channing Der (University of North Carolina) (Khosravi-Far, R. et al., Mol Cell Biol, 1995, 15:6443-53; Quilliam, L. A. et al., Mol Cell Biol, 1994, 14:1113-21). Wild-type RhoA and RhoB were subcloned into hemaglutinin (HA)-tagged pcDNA3 (INVITROGEN). The orientation and the sequences of these genes were confirmed by DNA sequencing facilities at the H. Lee Moffitt Cancer Center, Tampa, Fla. RhoB promoter construct pGEI was kindly provided by Dr Y. Monden (Banyu Tsukuba Research, Japan) (Nakamura et al., 1996). pCMV-β-galactosidase vector was purchased from INVITROGEN. The plasmid containing CA-, DN-PI3K, Mek and Akt were kindly provided by Dr. Julie Y. Djeu (H. Lee Moffitt Cancer and Research Institute, Tampa, Fla.) (Jiang, K. et al., Blood, 2003, 101:236-44). β-galactosidase activity and luciferase assay kits were purchased from PROMEGA Corporation, Madison, Wis. The serum response element (SRE) reporter was provided by Dr. Richard Jove, H. Lee Moffitt Cancer and Research Institute, Tampa, Fla. (Turkson, J. et al., Mol Cell Biol, 1999, 19:7519-28). […] Richard Jove, Oncology program, H. Lee Moffitt Cancer and Research Institute, Tampa, Fla. (Turkson, J. et al., Mol Cell Biol, 1999, 19:7519-28). […] (Luetteke, N. C. et al., Genes Dev, 1994, 8:399-413). DNA transfection was performed with the standard lipofectamine protocol (INVITROGEN). […] After transfection the cells were grown for another 36-48 h. Cells were then washed twice with PBS and lyzed in Promega Passive Lysis Buffer. Aliquots of the lysates were then used to measure the luciferase and β-galactosidase activities. The luciferase values were first divided by β-galactosidase values. The RhoB promoter transcriptional activity was determined by dividing the luciferase/β-Gal values from oncogene-transfected cells by those from pcDNA3-transfected cells. […] All the samples were performed in triplicate and the averages of 3 independent experiments were reported here.

O=c1[nH]cc(F)c(=O)[nH]1 [5-FU, 5-fluorouracil]
induction of RhoB promoter activity (RhoB promoter [1]): little effect | induction of RhoB promoter activity (RhoB promoter [2]; NIH3T3, 5-FU 2.0 μM 12 hours (FIG. 6A)): 2 fold | induction of RhoB promoter activity (RhoB promoter [2]; NIH3T3, 5-FU 2 μM for 12 hours, absence of oncogenes (FIG. 2A)): more than 4 fold | induction of RhoB promoter activity (RhoB promoter [2]; NIH3T3, 5-FU 2 μM for 12 hours, in the presence of H-Ras, N-Ras, and K-Ras (FIG. 2A)): only one fold or less than one fold
